These results are taken from patent publication US9464076B2, “Benzothiophene derivative” (Daiichi Sankyo Company, Limited, priority 2013, dated 2016).

Where a name gives a salt, the structure may show the parent alone.

The target of assay [1] is PDE10A (H-PDE10A2, Human Phosphodiesterase 10A2) (Homo sapiens (Human), UniProt Q9Y233). Description: Measurement of PDE10A inhibitory activity-1 (3H-cAMP, recombinant enzyme). The following applies: H-PDE10A2, 64 nM cAMP, 25° C., 2 hours. Format: biochemical. As to the method:
To a solution containing 20 mM Tris-HCl (pH 7.5), 1 mM MgCl2, 100 μM EDTA, 330 μg/ml bovine serum albumin, 50 kU/ml 5′-nucleotidase, 0.1 μCi ^3H-cAMP (64 nM cAMP), and PDE10A (H-PDE10A2, Human Phosphodiesterase 10A2, Scottish Biomedical), a test compound was added, and the mixture was reacted at 25° C. for 2 hours. To the reaction solution, QAE-Sephadex (17-0190-01, GE Healthcare Japan Corp.) suspended in 10 mM HEPES-Na (pH 7.0) (hereinafter, also referred to as a “QAE-Sephadex suspension”) was added, and the mixture was shaken for 1 minute and left standing for 5 minutes to obtain a supernatant. To the supernatant, a QAE-Sephadex suspension was further added, and the mixture was shaken for 1 minute and left standing for 5 minutes. Then, the obtained supernatant was transferred to LumaPlate (PerkinElmer, Inc.) and assayed using a radiation counter (TopCount NXT, PerkinElmer, Inc.).
The value of the sample reacted without the addition of both a test compound and PDE10A was defined as 0%, and the value of the sample reacted in the presence of PDE10A without the addition of a test compound was defined as 100%.

The next assay addresses PDE10A (Homo sapiens (Human), UniProt Q9Y233). The assay is described as follows: Measurement of PDE10A inhibitory activity-2 (PDE10A fraction prepared from MOLT-4 cells). Format: biochemical. The settings on record: PDE10A fraction from MOLT-4 cells (peak around 250 mM NaCl). The essentials: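 Enzyme source was a PDE10A-containing fraction from MOLT-4 cell soluble extract, resolved by HiTrap Q anion exchange with a 0–0.8 M NaCl gradient and selected by cAMP-hydrolysing activity. IC50 determined with this fraction by the same procedure as the preceding PDE10A assay.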

A further assay deals with Male C57BL/6 Cr mice. Description: Test on suppression of phencyclidine-induced hyperlocomotion in mice. The assay is classed as in vivo, mouse. The settings on record: Mus musculus, po, 1 h, locomotor activity, test compound 10 mg/kg oral, phencyclidine 5 mg/kg s.c. approx. 1 hour later, measured for 1 hour. As to the method:
Male C57BL/6 Cr mice (Japan SLC, Inc.) (8 weeks old) were used in the experiment. A test compound was suspended at 1 mg/mL in a 0.5% hydroxypropylcellulose solution to prepare a suspension for administration. The suspension of the test compound or a solvent (0.5% hydroxypropylcellulose solution) was orally administered at a dose of 10 mL/kg to each mouse. After the administration, the mouse was immediately placed in a locomotor activity measurement apparatus (Muromachi Kikai Co., Ltd., locomotor activity measurement system SUPERMEX). Approximately 1 hour later, phencyclidine (5 mg/10 mL/kg) or a solvent (10 mL/kg saline) was subcutaneously administered to the mouse. The locomotor activity was measured from immediately after the subcutaneous administration to 1 hour later.
Percent inhibition exceeding 100 means that when the activity of the phencyclidine administration control group was defined as 100, the activity of the group given a test compound was lower than that of the solvent administration control group.

Chain of PDE10A (Q9Y233 whole entry): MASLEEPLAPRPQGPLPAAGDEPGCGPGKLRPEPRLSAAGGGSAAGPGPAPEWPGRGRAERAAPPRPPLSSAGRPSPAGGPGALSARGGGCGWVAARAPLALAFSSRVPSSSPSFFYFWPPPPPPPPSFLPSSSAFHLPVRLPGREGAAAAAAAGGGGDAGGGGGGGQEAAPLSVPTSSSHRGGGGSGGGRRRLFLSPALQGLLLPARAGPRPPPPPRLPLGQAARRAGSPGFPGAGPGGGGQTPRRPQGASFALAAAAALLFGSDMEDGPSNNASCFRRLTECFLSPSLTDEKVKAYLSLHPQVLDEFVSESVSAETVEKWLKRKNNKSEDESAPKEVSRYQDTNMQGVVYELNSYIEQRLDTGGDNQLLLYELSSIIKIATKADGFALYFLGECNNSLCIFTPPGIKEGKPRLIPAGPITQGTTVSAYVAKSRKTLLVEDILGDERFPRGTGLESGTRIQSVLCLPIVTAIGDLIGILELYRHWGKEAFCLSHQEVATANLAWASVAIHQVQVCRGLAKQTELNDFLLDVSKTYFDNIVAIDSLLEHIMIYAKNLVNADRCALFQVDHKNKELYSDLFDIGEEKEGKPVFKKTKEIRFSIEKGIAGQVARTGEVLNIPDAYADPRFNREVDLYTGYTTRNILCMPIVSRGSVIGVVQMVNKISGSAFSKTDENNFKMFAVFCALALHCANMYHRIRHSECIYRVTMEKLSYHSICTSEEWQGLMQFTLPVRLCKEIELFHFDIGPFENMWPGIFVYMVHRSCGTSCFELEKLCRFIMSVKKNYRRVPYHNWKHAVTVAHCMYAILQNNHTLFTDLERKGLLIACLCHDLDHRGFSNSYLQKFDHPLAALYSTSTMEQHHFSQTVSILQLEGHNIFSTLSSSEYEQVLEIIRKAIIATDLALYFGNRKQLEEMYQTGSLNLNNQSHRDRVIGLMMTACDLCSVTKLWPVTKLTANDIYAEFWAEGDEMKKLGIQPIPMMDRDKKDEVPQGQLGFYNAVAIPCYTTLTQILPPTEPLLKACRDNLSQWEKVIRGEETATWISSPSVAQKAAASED
Chain of PDE10A (H-PDE10A2, Human Phosphodiesterase 10A2) (Q9Y233 267-1055): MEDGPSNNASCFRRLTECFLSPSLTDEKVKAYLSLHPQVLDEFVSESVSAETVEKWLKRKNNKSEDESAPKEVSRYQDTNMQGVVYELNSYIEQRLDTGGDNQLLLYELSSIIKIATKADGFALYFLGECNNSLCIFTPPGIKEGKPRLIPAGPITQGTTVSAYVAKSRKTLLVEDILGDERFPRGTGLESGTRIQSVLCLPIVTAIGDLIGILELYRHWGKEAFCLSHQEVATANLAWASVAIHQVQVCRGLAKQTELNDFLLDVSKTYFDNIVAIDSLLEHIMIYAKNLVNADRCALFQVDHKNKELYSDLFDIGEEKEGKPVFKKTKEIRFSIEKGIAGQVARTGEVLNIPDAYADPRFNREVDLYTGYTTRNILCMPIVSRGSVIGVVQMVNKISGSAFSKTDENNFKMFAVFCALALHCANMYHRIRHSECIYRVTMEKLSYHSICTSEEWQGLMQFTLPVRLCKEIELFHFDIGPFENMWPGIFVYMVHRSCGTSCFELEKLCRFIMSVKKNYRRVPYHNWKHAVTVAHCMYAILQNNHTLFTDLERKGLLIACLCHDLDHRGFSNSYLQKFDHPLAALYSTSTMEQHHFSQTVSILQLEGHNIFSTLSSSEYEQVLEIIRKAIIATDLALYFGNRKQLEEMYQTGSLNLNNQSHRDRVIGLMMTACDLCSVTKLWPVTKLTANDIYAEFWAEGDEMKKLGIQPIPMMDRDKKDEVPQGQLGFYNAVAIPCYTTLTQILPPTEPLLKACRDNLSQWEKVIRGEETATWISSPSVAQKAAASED

For `CC(=O)c1ccc(C(C)=O)c2c(C)c(C(=O)Nc3cc(C(C)(C)O)c4ccccc4n3)sc12` [Example 3, 4,7-Diacetyl-N-(4-(2-hydroxypropan-2-yl)quinolin-2-yl)-3-methylbenzo[b]thiophene-2-carboxamide hydrochloride], the half-maximal inhibitory concentration (IC50) in assay [1] (hydrochloride) was found to be 5.9 nM.
Turning to `CC(=O)c1ccc(C(C)=O)c2c(C)c(C(=O)Nc3cc(C(C)(C)O)c4ccccc4n3)sc12` [Example 4, 4,7-Diacetyl-N-(4-(2-hydroxypropan-2-yl)quinolin-2-yl)-3-methylbenzo[b]thiophene-2-carboxamide hydrobromide], the IC50 in assay [1] (hydrobromide) stood at 5.8 nM.
`CC(=O)c1ccc(C(C)=O)c2c(C)c(C(=O)Nc3cc(C(C)(C)O)c4ccccc4n3)sc12` [Example 5, 4,7-Diacetyl-N-(4-(2-hydroxypropan-2-yl)quinolin-2-yl)-3-methylbenzo[b]thiophene-2-carboxamide semisulfate]: in assay [1], the IC50 was found to be 11 nM.
In the case of `CC(=O)c1ccc(C(C)=O)c2c(C)c(C(=O)Nc3cc(C(C)(C)O)c4ccccc4n3)sc12` [Example 6, 4,7-Diacetyl-N-(4-(2-hydroxypropan-2-yl)quinolin-2-yl)-3-methylbenzo[b]thiophene-2-carboxamide methanesulfonate], in assay [1] (methanesulfonate), the 50% inhibitory concentration (IC50) came to 5.1 nM.
Turning to `COCc1ccc(C(C)=O)c2sc(C(=O)Nc3cc(C(C)(C)O)c4ccccc4n3)c(C)c12` [Example 27, 7-Acetyl-N-(4-(2-hydroxypropan-2-yl)quinolin-2-yl)-4-(methoxymethyl)-3-methylbenzo[b]thiophene-2-carboxamide hydrochloride], the 50% inhibitory concentration (IC50) in assay [1] (hydrochloride) was 1.6 nM.
On to `COCc1ccc(C(C)=O)c2sc(C(=O)Nc3cc(C(C)(C)O)c4ccccc4n3)c(C)c12` [Example 28, 7-Acetyl-N-(4-(2-hydroxypropan-2-yl)quinolin-2-yl)-4-(methoxymethyl)-3-methylbenzo[b]thiophene-2-carboxamide hydrobromide], for which, in assay [1] (hydrobromide), the IC50 turned out to be 2 nM.
On to `COCc1ccc(C(C)=O)c2sc(C(=O)Nc3cc(CN4CC[C@@H](O)C4)c4ccccc4n3)c(C)c12` [Example 40, (R)-7-Acetyl-N-(4-((3-hydroxypyrrolidin-1-yl)methyl)quinolin-2-yl)-4-(methoxymethyl)-3-methylbenzo[b]thiophene-2-carboxamide hydrochloride], for which the concentration for half-maximal inhibition (IC50) in assay [1] (hydrochloride) was determined as 0.65 nM.
`COCc1ccc(C(C)=O)c2sc(C(=O)Nc3cc(CN4CC[C@@H](O)C4)c4ccccc4n3)c(C)c12` [Example 41, (R)-7-Acetyl-N-(4-((3-hydroxypyrrolidin-1-yl)methyl)quinolin-2-yl)-4-(methoxymethyl)-3-methylbenzo[b]thiophene-2-carboxamide p-toluenesulfonate]: the concentration for half-maximal inhibition (IC50) in assay [1] (p-toluenesulfonate) was 1.3 nM.
In the case of `COCc1cccc2nc(NC(=O)c3sc4c(C(C)=O)ccc(COC)c4c3C)ccc12` [Example 67, 7-Acetyl-4-(methoxymethyl)-N-(5-(methoxymethyl)quinolin-2-yl)-3-methylbenzo[b]thiophene-2-carboxamide], the IC50 in assay [1] came to 1.8 nM.
Compound `COCc1ccc(C(C)=O)c2sc(C(=O)Nc3ccc4c(COC(=O)[C@@H](N)C(C)C)cccc4n3)c(C)c12` [Example 84, (S)-(2-(7-Acetyl-4-(methoxymethyl)-3-methylbenzo[b]thiophene-2-carboxamido)quinolin-5-yl)methyl-2-amino-3-methylbutanoate] had a half-inhibitory concentration (IC50) at PDE10A of 7.1 nM. Moreover, the inhibition in vivo at 10 mg/kg with Male C57BL/6 Cr mice is 92%.
Consider `COCc1ccc(C(C)=O)c2sc(C(=O)Nc3ccc4c(COC(=O)CN)cccc4n3)c(C)c12` [Example 85, (2-(7-Acetyl-4-(methoxymethyl)-3-methylbenzo[b]thiophene-2-carboxamido)quinolin-5-yl)methyl-2-aminoacetate], for which half-maximal inhibition at PDE10A (IC50) was put at 1.1 nM. Also, in the assay on Male C57BL/6 Cr mice, the inhibition in vivo at 10 mg/kg came out at 85%.
For `COCc1ccc(C(C)=O)c2sc(C(=O)Nc3ccc4c(COC(=O)[C@H](C)N)cccc4n3)c(C)c12` [Example 86, (S)-(2-(7-Acetyl-4-(methoxymethyl)-3-methylbenzo[b]thiophene-2-carboxamido)quinolin-5-yl)methyl-2-aminopropanoate], in that order: 1.1 nM and 88%.
For `COCc1ccc(C(C)=O)c2sc(C(=O)Nc3ccc4c(COP(=O)(O)O)cccc4n3)c(C)c12` [Example 87, (2-(7-Acetyl-4-(methoxymethyl)-3-methylbenzo[b]thiophene-2-carboxamido)quinolin-5-yl)methyl dihydrogen phosphate hydrochloride], in that order: 0.6 nM and 92%.
For `COCc1ccc(C(C)=O)c2sc(C(=O)Nc3ccc4c(C(=O)N(C)C)cccc4n3)c(C)c12` [Example 97, 2-(7-Acetyl-4-(methoxymethyl)-3-methylbenzo[b]thiophene-2-carboxamido)-N,N-dimethylquinoline-5-carboxamide], in that order: 0.26 nM and 50%.
Consider `COCc1ccc(C(C)=O)c2sc(C(=O)Nc3ccc4c(C(=O)N5CC(O)C5)cccc4n3)c(C)c12` [Example 101, 7-Acetyl-N-(5-((3-hydroxyazetidin-1-yl)carbonyl)quinolin-2-yl)-4-(methoxymethyl)-3-methylbenzo[b]thiophene-2-carboxamide], for which, on PDE10A, the IC50 was determined as 0.11 nM. Besides, the inhibition in vivo at 10 mg/kg with Male C57BL/6 Cr mice came to 35%.
Regarding `COCc1ccc(C(C)=O)c2sc(C(=O)Nc3ccc4c(C(=O)N5CC(OC)C5)cccc4n3)c(C)c12` [Example 103, 7-Acetyl-N-(5-((3-methoxyazetidin-1-yl)carbonyl)quinolin-2-yl)-4-(methoxymethyl)-3-methylbenzo[b]thiophene-2-carboxamide hydrochloride], in assay [1] (hydrochloride), the IC50 came to 0.31 nM.
On to `COCc1ccc(C(C)=O)c2sc(C(=O)Nc3ccc4c(C(=O)N5CC(OC)C5)cccc4n3)c(C)c12` [Example 104, 7-Acetyl-N-(5-((3-methoxyazetidin-1-yl)carbonyl)quinolin-2-yl)-4-(methoxymethyl)-3-methylbenzo[b]thiophene-2-carboxamide benzenesulfonate], for which the IC50 in assay [1] (benzenesulfonate) worked out at 2.2 nM.
Turning to `[2H]C([2H])(OC)c1ccc(C(C)=O)c2sc(C(=O)Nc3cc(C([2H])([2H])N4CC[C@@H](O)C4)c4ccccc4n3)c(C)c12` [Example 116, (R)-7-Acetyl-N-(4-((3-hydroxypyrrolidin-1-yl)(^2H2)methyl)quinolin-2-yl)-4-(methoxy(^2H2)methyl)-3-methylbenzo[b]thiophene-2-carboxamide], the concentration for half-maximal inhibition (IC50) against PDE10A was found to be 0.15 nM. The inhibition in vivo at 10 mg/kg with Male C57BL/6 Cr mice was determined as 180%.
For `[2H]C([2H])([2H])OCc1cccc2nc(NC(=O)c3sc4c(C(C)=O)ccc(COC)c4c3C)ccc12` [Example 117, 7-Acetyl-4-(methoxymethyl)-N-(5-((^2H3)methoxymethyl)quinolin-2-yl)-3-methylbenzo[b]thiophene-2-carboxamide], in that order: 0.61 nM and 57%.
At PDE10A, `[2H]C([2H])([2H])OCc1ccc(C(C)=O)c2sc(C(=O)Nc3ccc4c(COC)cccc4n3)c(C)c12` [Example 118, 7-Acetyl-4-((^2H3)methoxymethyl)-N-(5-(methoxymethyl)quinolin-2-yl)-3-methylbenzo[b]thiophene-2-carboxamide] registered an IC50 of 0.76 nM. Moreover, the inhibition in vivo at 10 mg/kg in the assay with Male C57BL/6 Cr mice was 77%.
On the same counts, the results for `[2H]C([2H])([2H])OCc1ccc(C(C)=O)c2sc(C(=O)Nc3ccc4c(C(=O)N5CC(OC)C5)cccc4n3)c(C)c12` [Example 121, 7-Acetyl-N-(5-((3-methoxyazetidin-1-yl)carbonyl)quinolin-2-yl)-4-((^2H3)methoxymethyl)-3-methylbenzo[b]thiophene-2-carboxamide] are 0.57 nM and 59%.
On the same counts, the results for `COCc1ccc(C(C)=O)c2sc(C(=O)Nc3cc(CN4CCN(C)CC4)c4ccccc4n3)c(C)c12` [Example 125, 7-Acetyl-4-(methoxymethyl)-3-methyl-N-(4-((4-methylpiperazin-1-yl)methyl)quinolin-2-yl)benzo[b]thiophene-2-carboxamide] are 0.8 nM and 86%.

Usually IC50 stands for the point on the concentration scale where inhibition reaches its midpoint. Broadly, the inhibition in vivo is the relative decrease from the control value, in per cent.
